Experimental data taken from US11440880B2, “Thalidomide analogs and methods of use” (The USA, as represented by the Secretary, Department of …, priority 2015, dated 2022).

How the values were obtained:
[1] = system: mpo:GFP zebrafish embryos (neutrophil migration to the wound site); assay: mpo:GFP zebrafish fin-clip neutrophil migration (inflammation) assay; assay type: in vivo; set-up: mpo:GFP inflammation n (survived/tested): concentration or dose not given beside the values; details: for minimal effective concentration: Danio rerio, Neutrophil, lowest concentration producing an effect, compounds not producing an effect shown at the highest evaluated concentration; for mpo:GFP inflammation n (survived/tested): embryos survived/tested at the concentration given
How it was run: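 Tg(mpo::EGFP) larvae tail-fin clipped (dorsal third removed) at 72 hpf, then immersed in compound or vehicle. Neutrophils migrating to the wound site counted from images 24 h later; at least 50% reduction scored as anti-inflammatory. Viability and morphology also assessed.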

[2] = system: fli1:EGFP zebrafish embryos (intersegmental vessel growth); assay: fli1:EGFP zebrafish embryo angiogenesis assay; assay type: in vivo; set-up: fli1:EGFP angiogenesis n (survived/tested): concentration or dose not given beside the values; details: for minimal effective concentration: Danio rerio, lowest concentration producing an effect, compounds not producing an effect shown at the highest evaluated concentration; for fli1:EGFP angiogenesis n (survived/tested): embryos alive after 24 hours of exposure
How it was run: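 fli1:EGFP embryos grown 24 hpf, dechorionated and exposed to compound or vehicle over a range of concentrations for up to 24 h, with CPS49 as positive control. Imaged at 48 hpf for intersegmental vessel formation and growth; survival after 24 h exposure recorded, and values reflect the lowest concentration producing an effect.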

Structure (SMILES): O=C1CCC(N2C(=O)c3cccc([N+](=O)[O-])c3C2=O)C(=O)N1 (stereo not drawn) [Compound 5]
- minimal effective concentration [1]: 10 µg/mL
- mpo:GFP inflammation n (survived/tested) [1]: 28/28
- minimal effective concentration [2]: 7.5 µg/mL
- fli1:EGFP angiogenesis n (survived/tested) [2]: 8/14

Structure (SMILES): O=C1NC(=S)CCC1N1C(=O)c2cccc([N+](=O)[O-])c2C1=O (stereo not drawn) [Compound 7, 2-(2-Oxo-6-thioxo-3-piperidinyl)-4-nitro-1H-isoindole-1,3(2H)-dione]
- minimal effective concentration [1]: 10 µg/mL
- mpo:GFP inflammation n (survived/tested) [1]: 29/29
- minimal effective concentration [2]: 10 µg/mL
- fli1:EGFP angiogenesis n (survived/tested) [2]: 28/33

Structure (SMILES): Nc1cccc2c1CN(C1CCC(=O)NC1=O)C2=S (stereo not drawn) [Compound 29]
- minimal effective concentration [1]: 5 µg/mL
- mpo:GFP inflammation n (survived/tested) [1]: 2/10
- minimal effective concentration [2]: 10 µg/mL
- fli1:EGFP angiogenesis n (survived/tested) [2]: 6/17

Structure (SMILES): Nc1cccc2c1CN(C13CC4CC(CC(C4)C1)C3)C2=O [Compound 77, 2,3-Dihydro-4-amino-2-(tricyclo[3.3.1.1^3,7]dec-1-yl)-1H-isoindol-1-one]
- minimal effective concentration [1]: 200 µg/mL
- mpo:GFP inflammation n (survived/tested) [1]: 5/21
- minimal effective concentration [2]: 10 µg/mL
- fli1:EGFP angiogenesis n (survived/tested) [2]: 43/62

Structure (SMILES): CC(N1Cc2c(N)cccc2C1=O)C12CC3CC(CC(C3)C1)C2 (stereo not drawn) [Compound 81]
- minimal effective concentration [1]: 50 µg/mL
- mpo:GFP inflammation n (survived/tested) [1]: 9/21
- minimal effective concentration [2]: 50 µg/mL
- fli1:EGFP angiogenesis n (survived/tested) [2]: 7/8

Structure (SMILES): O=C1c2ccccc2CN1C12CC3CC(CC(O)(C3)C1)C2 [Compound 86, 2,3-Dihydro-2-(tricyclo[3.3.1.1^3,7]dec-1-hydroxy-3-yl)-1H-isoindol-1-one]
- minimal effective concentration [1]: 100 µg/mL
- mpo:GFP inflammation n (survived/tested) [1]: 14/19
- minimal effective concentration [2]: 200 µg/mL
- fli1:EGFP angiogenesis n (survived/tested) [2]: 4/12
